Read-outs that look alike come from different tables or passages of the source.
Columns and labels:
human PAI-1 = human PAI-1 (Homo sapiens, UniProt P05121); test: Assay for determining IC50 of inhibition of PAI-1 (tPA-coated plate, antibody detection of active PAI-1); conditions: human PAI-1 50 ng/ml, pH 7.5, binding to tPA-coated plate
Method: Assay for Determining IC50 of Inhibition of PAI-1
This assay is based upon the non-SDS dissociable interaction between tPA and active PAI-1. Assay plates were initially coated with human tPA (10 μg/ml). Test compounds were dissolved in DMSO at 10 mM, then diluted with physiologic buffer (pH 7.5) to a final concentration of 1-50 μM. Test compounds were incubated with human PAI-1 (50 ng/ml) for 15 minutes at room temperature. The tPA-coated plate was washed with a solution of 0.05% Tween 20 and 0.1% BSA, then the plate was blocked with a solution of 3% BSA. An aliquot of the test compound/PAI-1 solution was then added to the tPA-coated plate, incubated at room temperature for 1 hour, and washed. Active PAI-1 bound to the plate was assessed by adding an aliquot of a 1:1000 dilution of the 33B8 monoclonal antibody against human PAI-1, and incubating the plate at room temperature for 1 hour (Molecular Innovations, Royal Oak, Mich.). The plate was again washed, and a solution of goat anti-mouse IgG-alkaline phosphatase conjugate is added at a 1:50,000 dilution in goat serum. The plate was incubated 30 minutes at room temperature, washed, and a solution of alkaline phosphatase substrate is added. The plate was incubated 45 minutes at room temperature, and color development is determined at OD405 nm. The quantition of active PAI-1 bound to tPA at varying concentrations of the test compound was used to determine the IC50. Results were analyzed using a logarithmic best-fit equation. The assay sensitivity was 5 ng/ml of human PAI-1 as determined from a standard curve ranging from 0-100 ng/ml.

[1] = target: T1, recombinant human plasminogen activator inhibitor-1 (Homo sapiens, UniProt P05121); test: Primary screen for the PAI-1 inhibition (chromogenic residual tPA activity); type: biochemical
T1 construct: purchased Molecular Innovations, Royal Oak, Mich
Method: Primary Screen for the PAI-1 Inhibition
Test compounds were dissolved in DMSO at a final concentration of 10 mM, then diluted 100× in physiologic buffer. The inhibitory assay was initiated by the addition of the test compound (1-100 μM final concentration, maximum DMSO concentration of 0.2%) in a pH 6.6 buffer containing 140 nM recombinant human plasminogen activator inhibitor-1 (Molecular Innovations, Royal Oak, Mich.). Following a 1 hour incubation at room temperature, 70 nM of recombinant human tissue plasminogen activator (tPA) was added, and the combination of the test compound, PAI-1 and tPA was incubated for an additional 30 minutes. Following the second incubation, Spectrozyme-tPA (American Diagnostica, Greenwich, Conn.), a chromogenic substrate for tPA, was added and absorbance read at 405 nm at 0 and 60 minutes. Relative PAI-1 inhibition was equal to the residual tPA activity in the presence of the test compound and PAI-1. Control treatments included the complete inhibition of tPA by PAI-1 at the molar ratio employed (2:1), and the absence of any effect of the test compound on tPA alone.

[2] = 25 uM test compound, 140 nM PAI-1, 70 nM tPA, pH 6.6, read-out: % inhibition at 25 uM
[3] = pH 6.6, read-out: % inhibition at 25 uM

T1 sequence (P05121 24-402): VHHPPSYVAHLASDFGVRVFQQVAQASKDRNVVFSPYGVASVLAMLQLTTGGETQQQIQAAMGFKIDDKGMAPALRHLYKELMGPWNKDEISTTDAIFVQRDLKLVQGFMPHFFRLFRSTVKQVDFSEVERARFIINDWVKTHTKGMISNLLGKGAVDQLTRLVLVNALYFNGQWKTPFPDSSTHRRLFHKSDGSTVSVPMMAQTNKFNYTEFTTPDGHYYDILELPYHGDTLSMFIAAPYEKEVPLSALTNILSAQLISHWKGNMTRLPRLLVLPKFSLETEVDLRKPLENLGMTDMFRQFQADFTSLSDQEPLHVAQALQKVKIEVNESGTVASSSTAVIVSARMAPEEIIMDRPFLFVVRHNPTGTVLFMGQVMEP
human PAI-1, sequence (P05121 24-402): as above

IC50 (human PAI-1)	SMILES	melting point	inhibition at 25 µM [1, 2]	inhibition at 25 µM [1, 3]
2.3 µM	Cc1ccc(Cn2c3c(c4cc(-c5ccc(OC(F)(F)F)cc5)ccc42)C(=O)C(=O)OC3)cc1 [Example 1, 9-(4-Methylbenzyl)-6-[4-(trifluoromethoxy)phenyl]-1,9-dihydropyrano[3,4-b]indole-3,4-dione]	243 to 244 °C	–	–
–	O=C1OCc2c(c3cc(-c4ccc(OC(F)(F)F)cc4)ccc3n2Cc2ccccc2)C1=O [Example 2, 9-Benzyl-6-[4-(trifluoromethoxy)phenyl]-1,9-dihydropyrano[3,4-b]indole-3,4-dione]	239 to 240 °C	34%	–
–	Cc1ccc(Cn2c3c(c4cc(-c5cccc(C)c5)ccc42)C(=O)C(=O)OC3)cc1 [Example 3, 9-(4-Methylbenzyl)-6-(3-methylphenyl)-1,9-dihydropyrano[3,4-b]indole-3,4-dione]	216 to 217 °C	–	22%
29.5 µM	Cc1cccc(-c2ccc3c(c2)c2c(n3Cc3ccc(C(C)(C)C)cc3)COC(=O)C2=O)c1 [Example 4, 9-(4-tert-butylbenzyl)-6-(3-methylphenyl)-1,9-dihydropyrano[3,4-b]indole-3,4-dione]	196 to 197 °C	–	–
26.6 µM	Cc1ccc(Cn2c3c(c4cc(OCc5ccccc5)ccc42)C(=O)C(=O)OC3)cc1 [Example 5, 6-(Benzyloxy)-9-(4-methylbenzyl)-1,9-dihydropyrano[3,4-b]indole-3,4-dione]	206 to 207 °C	–	–
34.8 µM	O=C1OCc2[nH]c3ccc(OCc4ccccc4)cc3c2C1=O [Example 6, 6-(Benzyloxy)-1,9-dihydropyrano[3,4-b]indole-3,4-dione]	> 291 °C (dec.)	–	–
–	CC(C)(C)c1ccc(Cn2c3c(c4cc(OCc5ccccc5)ccc42)C(=O)C(=O)OC3)cc1 [Example 7, 6-(Benzyloxy)-9-(4-tert-butylbenzyl)-1,9-dihydropyrano[3,4-b]indole-3,4-dione]	233 to 234 °C	6%	–
4.83 µM	CC(C)(C)c1ccc(Cn2c3c(c4cc(O)ccc42)C(=O)C(=O)OC3)cc1 [Example 8, 9-(4-tert-Butylbenzyl)-6-hydroxy-1,9-dihydropyrano[3,4-b]indole-3,4-dione]	> 105 °C (dec.)	–	–
–	O=C1OCc2c(c3cc(-c4ccc(Cl)cc4)ccc3n2Cc2ccccc2)C1=O [Example 9, 9-Benzyl-6-(4-chlorophenyl)-1,9-dihydropyrano[3,4-b]indole-3,4-dione]	263 to 264 °C	–	40%
–	O=C([O-])C(=O)c1c(CO)n(Cc2ccccc2)c2ccc(-c3ccc(Cl)cc3)cc12.[K+] [Example 10, [1-Benzyl-5-(4-chlorophenyl)-2-(hydroxymethyl)-1H-indol-3-yl](oxo)acetic acid, potassium salt]	225 to 226 °C	–	59%
–	Cc1cccc(-c2ccc3c(c2)c2c(n3Cc3ccccc3)COC(=O)C2=O)c1 [Example 11, 9-Benzyl-6-(3-methylphenyl)-1,9-dihydropyrano[3,4-b]indole-3,4-dione]	225 to 226 °C	–	30%
–	O=C1OCc2c(c3cc(-c4ccc(-c5ccccc5)cc4)ccc3n2Cc2ccccc2)C1=O [Example 12, 9-Benzyl-6-(1,1′-biphenyl-4-yl)-1,9-dihydropyrano[3,4-b]indole-3,4-dione]	254 to 255 °C	40%	–
–	O=C([O-])C(=O)c1c(CO)n(Cc2ccccc2)c2ccc(-c3ccc(-c4ccccc4)cc3)cc12.[K+] [Example 13, [1-Benzyl-5-(1,1′-biphenyl-4-yl)-2-(hydroxymethyl)-1H-indol-3-yl](oxo)acetic acid, potassium salt]	266 to 268 °C	–	36%

From patent publication US7459478B2, “Substituted dihydropyrano indole-3,4-dione derivatives as inhibitors of plasminogen activator inhibitor-1 (PAI-1)” (Wyeth, priority 2002, dated 2008)
